Data taken from patent US3966734A, “Method for the purification of 6-methoxy-1-phenazinol 5,10-dioxide” (Hoffmann-La Roche Inc., priority 1975, dated 1976).

How the values were obtained:
[1] = Solubility in water; type: physicochemical
[2] = system: gram positive and gram negative bacteria, fungi, protozoa and helminths; assay: Anti-microbial activity in in vitro tests and in vivo topical infections (general statement)
[3] = system: P. aeruginosa; assay: In vivo anti-microbial activity against P. aeruginosa
Procedure: (§1) For example, the anti-microbial activity of calcium myxin dihydrate, prepared by the method of this invention, is evaluated and compared to that of myxin itself both in vivo against 4 strains of bacteria and in vitro against yeast and fungus infections.

[4] = system: M. canis; assay: In vitro anti-microbial activity (minimum inhibitory concentration) against M. canis; type: cell-based
Procedure: as §1

[5] = system: C. albicans; assay: In vitro anti-microbial activity (minimum inhibitory concentration) against C. albicans; type: cell-based
Procedure: as §1

[6] = system: S. aureus; assay: In vivo anti-microbial activity against S. aureus
Procedure: as §1

[7] = system: S. agalactiae; assay: In vivo anti-microbial activity against S. agalactiae
Procedure: as §1

[8] = system: E. coli; assay: In vivo anti-microbial activity against E. coli
Procedure: as §1

COc1cccc2c1[n+]([O-])c1cccc(O)c1[n+]2[O-] [Myxin, 6-methoxy-1-phenazinol 5,10-dioxide]
solubility in water [1]: very slightly soluble in water | anti-microbial activity [2]: high degree and wide spectrum of anti-microbial activity

6-methoxy-1-phenazinol 5,10-dioxide, calcium dihydrate complex [Calcium Myxin Dihydrate]
ED50' (in vivo) [3]: 20 µg/mL | Minimum Inhibitory Concentration, cidal ([4]; cidal): < 0.8 µg/mL | Minimum Inhibitory Concentration, static ([4]; static): < 0.8 µg/mL | Minimum Inhibitory Concentration, cidal ([5]; cidal): < 0.8 µg/mL | Minimum Inhibitory Concentration, static ([5]; static): < 0.8 µg/mL | ED50' (in vivo) [6]: < 20 µg/mL | ED50' (in vivo) [7]: < 4 µg/mL | ED50' (in vivo) [8]: 60 µg/mL
